From patent US12043670B2, “Anti-BCMA antibody-drug conjugates and methods of use” (Eisai R&D Management Co., Ltd., priority 2020, dated 2024)
Read-outs that look alike come from different tables or passages of the source.

Assays:
[1] = tested on: LP-1 cells; experiment: 6-day CellTiter-Glo cell viability, LP-1; format: cell-based, human
[2] = tested on: NCI-H929 cells; experiment: CellTiter-Glo cell viability, NCI-H929 (normal serum); format: cell-based, human; settings: for GI50: Homo sapiens
[3] = PAMPA permeability; format: in vitro ADME; settings: read-out: Stability, Mean, Perm PAMPA
[4] = tested on: splicing of Ad2.2 pre-mRNA in HeLa nuclear extract; experiment: In vitro splicing (IVS), qPCR readout, Ad2.2 substrate; format: biochemical
Experimental: To evaluate payload activity in a cell-free system, an in vitro splicing assay was performed. The payloads were incubated with nuclear extracts and pre-mRNA substrate minigenes.
HeLa nuclear extract preparation: HeLa S3 cell pellets were resuspended in hypotonic buffer (10 mM HEPES pH 7.9, 1.5 mM MgCl2, 10 mM KCl, 0.2 mM PMSF, 0.5 mM DTT) and the suspension was brought up to a total of 5 packed cell volume (PCV). After centrifugation, the supernatant was discarded, and the cells were brought up to 3 PCV with hypotonic buffer and incubated on ice for 10 min. Cells were lysed using a dounce homogenizer and then centrifuged. The supernatant was discarded, and the pellet was resuspended with ½ packed nuclear volume (PNV) of low salt buffer (20 mM HEPES pH 7.9, 1.5 mM MgCl2, 20 mM KCl, 0.2 mM EDTA, 25% glycerol, 0.2 mM PMSF, 0.5 mM DTT), followed by ½ PNV of high salt buffer (same as low salt buffer except 1.4 M KCl). The nuclei were gently mixed for 30 min before centrifuging. The supernatant (nuclear extract) was then dialyzed into storage buffer (20 mM HEPES pH 7.9, 100 mM KCl, 0.2 mM EDTA, 20% glycerol, 0.2 mM PMSF, 0.5 mM DTT). Protein concentration was determined using NanoDrop 8000 UV-Vis spectrophotometer (ThermoFisher Scientific). […]

[5] = tested on: EJM cells; experiment: 6-day CellTiter-Glo cell viability, EJM; format: cell-based, human
[6] = Caco-2 permeability; format: in vitro ADME; settings: human
Experimental: Caco-2 cells were cultured for 21 days in transwell 24-well plates at 37° C., 95% humidity, 5% CO2. Integrity of cell monolayer was confirmed by TEER (transepithelial electrical resistance) and Lucifer yellow. Payloads were spiked in duplicate at 10 μM, separately, on both sides of the cell monolayer. Permeability rates from the apical to basolateral (A-B) direction and the basolateral to apical (B-A) direction were determined by sampling aliquots from both chambers immediately after treatment (t=0) and following incubation for 2 hours. Samples were protein precipitated with organic solvent containing internal standard and analyzed by LC-MS/MS (SCIEX; API 5500). The area ratio responses of payload/internal standard over time in both directions were used to generate permeability (cm/sec) values. Efflux ratio was calculated by dividing B-A/A-B. Control compounds for low and high permeability and efflux behaved as expected.

[7] = tested on: AMO-1 cells; experiment: 6-day CellTiter-Glo cell viability, AMO-1; format: cell-based, human
[8] = tested on: MM1.R cells; experiment: CellTiter-Glo cell viability, MM1.R; format: cell-based, human; settings: for GI50: Homo sapiens, MM.1R
[9] = tested on: MOLP8 cells; experiment: CellTiter-Glo cell viability, MOLP8; format: cell-based, human
[10] = tested on: MM1.S cells; experiment: CellTiter-Glo cell viability, MM1.S; format: cell-based, human; settings: for GI50: Homo sapiens

CC[C@H](O)[C@@H](C)[C@H]1O[C@@H]1C[C@@](C)(O)/C=C/C=C(\C)[C@H]1OC(=O)C[C@H](O)CC[C@@](C)(O)[C@@H](OC(=O)N2CCNCC2)/C=C/[C@@H]1C [D1, (2S,3S,6S,7R,10R,E)-7,10-dihydroxy-2-((R,2E,4E)-6-hydroxy-7-((2R,3R)-3-((2R,3S)-3-hydroxypentan-2-yl)oxiran-2-yl)-6-methylhepta-2,4-dien-2-yl)-3,7-dimethyl-12-oxooxacyclododec-4-en-6-yl piperazine-1-carboxylate]
GI50 ([1]; Homo sapiens, LP-1, 144 h): 112 nM
AUC (nM * % relative viability) ([1]; LP1 cells, 6 days): 643.9226 nM * % relative viability
LD50 ([1]; LP1 cells, 6 days, CellTiter-Glo): 234.5168 nM
RminAve ([1]; LP1 cells, 6 days, negative = cell death vs T0): −99.7195%
GI50 ([2]; NCI-H929, 96 h, read-out: CTGlo Mean GI50 H929 96 h): 75.5 nM
GI50 ([2]; NCI-H929, 144 h): 119 nM
AUC (nM * % relative viability) ([2]; NCIH929 cells, 6 days): 646.6007 nM * % relative viability
LD50 ([2]; NCIH929 cells, 6 days, CellTiter-Glo): 246.6292 nM
RminAve ([2]; NCIH929 cells, 6 days, negative = cell death vs T0): −99.8009%
CTGlo Mean LD50 H929 96 h ([2]; payload alone, H929, 96 h): 201 nM
Papp [3]: < 0.1 ×10⁻⁶ cm/s
IC50 [4]: 25 nM
AUC (nM * % relative viability) ([5]; EJM cells, 6 days): 664.163 nM * % relative viability
LD50 ([5]; EJM cells, 6 days, CellTiter-Glo): 303.5191 nM
RminAve ([5]; EJM cells, 6 days, negative = cell death vs T0): −99.0579%
GI50 ([5]; Homo sapiens, EJM, 144 h): 140 nM
efflux ratio at 2 h, 10 μM ([6]; B-A/A-B): 1.5
Papp A→B at 2 h, 10 μM ([6]; apical to basolateral, 10 μM, 2 hours, read-out: Permeability, Mean, Caco-2 A-B Perm): 0.2 ×10⁻⁶ cm/s
Papp B→A at 2 h, 10 μM ([6]; basolateral to apical, 10 μM, 2 hours, read-out: Permeability, Mean, Caco-2 B-A Perm): 0.3 ×10⁻⁶ cm/s
AUC (nM * % relative viability) ([7]; AMO1 cells, 6 days): 797.7136 nM * % relative viability
LD50 ([7]; AMO1 cells, 6 days, CellTiter-Glo): 1689.735 nM
RminAve ([7]; AMO1 cells, 6 days, negative = cell death vs T0): −99.4709%
GI50 ([7]; Homo sapiens, AMO1, 144 h): 567 nM
GI50 ([8]; 96 h, read-out: CTGlo Mean GI50 MM1.R 96 h): 147 nM
GI50 ([8]; 144 h): 89.3 nM
AUC (nM * % relative viability) ([8]; MM1R cells, 6 days): 640.2408 nM * % relative viability
LD50 ([8]; MM1R cells, 6 days, CellTiter-Glo): 283.0093 nM
RminAve ([8]; MM1R cells, 6 days, negative = cell death vs T0): −99.9109%
CTGlo Mean LD50 MM1.R 96 h ([8]; payload alone, MM1.R, 96 h): 510.8 nM
GI50 ([9]; Homo sapiens, MOLP-8, 144 h): 150 nM
AUC (nM * % relative viability) ([9]; MOLP8 cells, 6 days): 690.1106 nM * % relative viability
LD50 ([9]; MOLP8 cells, 6 days, CellTiter-Glo): 533.6503 nM
RminAve ([9]; MOLP8 cells, 6 days, negative = cell death vs T0): −99.755%
GI50 ([10]; MM1.S, 96 h, read-out: CTGlo Mean GI50 MM1.S 96 h): 37.1 nM
GI50 ([10]; MM1.S, 144 h): 88.4 nM
AUC (nM * % relative viability) ([10]; MM1S cells, 6 days): 644.3501 nM * % relative viability
LD50 ([10]; MM1S cells, 6 days, CellTiter-Glo): 302.924 nM
RminAve ([10]; MM1S cells, 6 days, negative = cell death vs T0): −99.8996%
CTGlo Mean LD50 MM1.S 96 h ([10]; payload alone, MM1.S, 96 h): 98.2 nM
